Measured values: US9926304B2, “1-(arylmethyl)quinazoline-2,4(1H,3H)-diones as PARP inhibitors and the use thereof” (Impact Therapeutics, Inc., priority 2011, dated 2018)

What was measured:
[1] = test system: BRCA-2 deficient CAPAN-1 human pancreatic cancer cells; experiment: MTT based cell viability assay: growth inhibition of BRCA-2 deficient CAPAN-1 cells; conditions: 240 h, compound alone, 10 day assay
Description: Determination of the cell growth inhibiting activity of 1-(3-(4-(pyrimidin-2-yl)piperazine-1-carbonyl)benzyl)quinazoline-2,4(1H,3H)-dione and analogs on BRCA-2 deficient CAPAN-1 pancreatic duck cancer cells using a MTT based cell viability assay
BRCA-deficient cancer cells are sensitive to PARP inhibition. In the presence of PARP inhibitors, BRCA-deficient cancer cells could not grow and eventually will lead to death of cells. BRCA-2 deficient CAPAN-1 human pancreatic cancer cells were used to test the growth inhibiting activity of substituted 1-(arylmethyl)quinazoline-2,4(1H,3H)-diones. Briefly, CAPAN-1 cells are grown and maintained in IMEM medium supplemented with 20% FBS. The assay takes 10 days to finish. On day 1, 6000 CAPAN-1 cells are seeded to each well of a 96-well plate. The cells are incubated at 37° C. in a cell culture incubator overnight. In the next day, serial dilutions of compounds to be tested and reference compound (AZD2281) were prepared with a 1:3 and 1:10 fashion in DMSO. Ten-fold compound solutions were made by mixing 10 μl DMSO serial dilution solutions with 90 μl fresh growth medium. The cell culture medium was removed and 180 μl fresh media with FBS and 20 μl of compound solutions were added to each well. The final concentration of DMSO was 1%. Cells were then returned to the CO2 cell culture incubator and incubated at 37° C. for two days (day 3 and day 4). On day 5, the same procedure as what was done on day 2 was repeated. Cell culture medium was removed and fresh medium containing serial dilutions of compounds or reference compounds were added. Cells were returned to the CO2 cell culture incubator and incubated for two more days. On day 8, same procedure was repeated again and fresh medium containing the testing compounds or reference compounds were added and incubated for an additional 2 days. On day 10, 20 μl of MTT reagent (5 mg/ml) was added to each well of the cell culture plate and incubated for 4 h. The cell culture media was removed and 100 μl DMSO was added to each well. The 96-well cell culture plates were shaked horizontally for 10 min and readed in a Varioskan Flash plate reader (Thermo Fisher Scientific) at 520 and 690 nm. The obtained 520 nm absorbance readings subtracting corresponding 690 nm reading were analyzed using a commercial graphic software (GraphPad Prism 5) and plotted against the Log scale of the compound concentrations.

[2] = test system: Human breast cancer cell line T47D; experiment: Cell based caspase-3 activity assay: potentiation of MMS induced apoptosis; conditions: Homo sapiens, T47D, 24 h, T47D cells, 11.1 μg/ml MMS, 24 hours, intracellular caspase-3 activity; read-out: EC50 (nM), potentiation of the apoptosis inducing activity of MMS
Method in brief: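 T47D cells were exposed for 24 h to compound plus a minimally apoptotic MMS dose (medium containing 11.1 μg/ml MMS). Lysates were incubated 3 h at 37 °C with (Ac-DEVD)2-R110 caspase-3 substrate (20 μM in added buffer) and read at ex 496/em 520 nm. EC50 came from a sigmoidal fit of RFU versus log concentration.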

[3] = test system: SW620 human colorectal cancer cells; experiment: MTT based cell viability assay: potentiation of the growth inhibiting activity of MMS; conditions: Homo sapiens, SW-620, 120 h, read-out: IC50 (nM), potentiation of the growth inhibiting activity of MMS, SW620 cells, 1.7 μg/ml MMS, 5 days (120 hours), MTT

IC50 [1] | EC50 [2] | IC50 [3] | Compound
56 nM | 3 nM | 0.72 nM | O=C(c1cc(Cn2c(=O)[nH]c(=O)c3cc(Cl)ccc32)ccc1F)N1CCN(C(=O)C2CCCCC2)CC1 [Example 119, 6-Chloro-1-(3-(4-(cyclohexylcarbonyl)piperazine-1-carbonyl)-4-fluorobenzyl)quinazoline-2,4(1H,3H)-dione]
339 nM | 34 nM | 136 nM | O=C(c1cccc(Cn2c(=O)[nH]c(=O)c3ccccc32)n1)N1CCN(c2ccccn2)CC1 [Example 70, 1-((2-(4-(Pyridin-2-yl)piperazine-1-carbonyl)pyridin-6-yl)methyl)quinazoline-2,4(1H,3H)-dione]
452 nM | 2.6 nM | 8.3 nM | O=C(c1cc(Cn2c(=O)[nH]c(=O)c3c(Cl)cccc32)ccc1F)N1CCN(C(=O)C2CCCC2)CC1 [Example 104, 5-Chloro-1-(3-(4-(cyclopentylcarbonyl)piperazine-1-carbonyl)-4-fluorobenzyl)quinazoline-2,4(1H,3H)-dione]
4940 nM | 139 nM | 391 nM | O=C(c1cccc(Cn2c(=O)[nH]c(=O)c3ccccc32)c1)N1CCN(c2cnccn2)CC1 [Example 20, 1-(3-(4-(Pyrazin-2-yl)piperazine-1-carbonyl)benzyl)quinazoline-2,4(1H,3H)-dione]
45 nM | 4.7 nM | 5.8 nM | O=C(c1cc(Cn2c(=O)[nH]c(=O)c3c(F)cccc32)ccc1F)N1CCN(C(=O)C2CCCCC2)CC1 [Example 134, 1-(3-(4-(Cyclohexylcarbonyl)piperazine-1-carbonyl)-4-fluorobenzyl)-5-fluoroquinazoline-2,4(1H,3H)-dione]
3440 nM | 15 nM | 10 nM | O=C(c1cc(Cn2c(=O)[nH]c(=O)c3c(F)cccc32)ccc1F)N1CCN(C(=O)C2CCCO2)CC1 (stereo not drawn) [Example 210, 5-Fluoro-1-(4-fluoro-3-(4-(tetrahydrofuran-2-carbonyl)piperazine-1-carbonyl)benzyl)quinazoline-2,4(1H,3H)-dione]
1840 nM | 214 nM | 618 nM | O=C(c1ccc(Br)cc1)N1CCN(C(=O)c2cccc(Cn3c(=O)[nH]c(=O)c4ccccc43)c2)CC1 [Example 11, 1-(3-(4-(4-Bromobenzoyl)piperazine-1-carbonyl)benzyl)quinazoline-2,4(1H,3H)-dione]
312 nM | 70 nM | 202 nM | O=C(c1cccc(Cn2c(=O)[nH]c(=O)c3c(Cl)cccc32)c1)N1CCN(c2ncccn2)CC1 [Example 100, 5-Chloro-1-(3-(4-(pyrimidin-2-yl)piperazine-1-carbonyl)benzyl)quinazoline-2,4(1H,3H)-dione]
400 nM | 20 nM | 149 nM | O=C(c1cccc(Cn2c(=O)[nH]c(=O)c3ccccc32)c1)N1CCN(C(=O)C2CCCCC2)CC1 [Example 26, 1-(3-(4-(Cyclohexylcarbonyl)piperazine-1-carbonyl)benzyl)quinazoline-2,4(1H,3H)-dione]
389 nM | 3.2 nM | 9.5 nM | O=C(c1ccco1)N1CCN(C(=O)c2cc(Cn3c(=O)[nH]c(=O)c4c(F)cccc43)ccc2F)CC1 [Example 172, 5-Fluoro-1-(4-fluoro-3-(4-(furan-2-carbonyl)piperazine-1-carbonyl)benzyl)quinazoline-2,4(1H,3H)-dione]
52 nM | 5.8 nM | 14 nM | O=C(c1ccc(F)c(Cn2c(=O)[nH]c(=O)c3cc(F)ccc32)c1)N1CCN(c2ncccn2)CC1 [Example 149, 6-Fluoro-1-(6-fluoro-3-(4-(pyrimidin-2-yl)piperazine-1-carbonyl)benzyl)quinazoline-2,4(1H,3H)-dione]
142 nM | 12 nM | 23 nM | O=C(c1ccc(F)c(Cn2c(=O)[nH]c(=O)c3c(F)cccc32)c1)N1CCN(c2ccccn2)CC1 [Example 155, 5-Fluoro-1-(6-fluoro-3-(4-(pyridin-2-yl)piperazine-1-carbonyl)benzyl)quinazoline-2,4(1H,3H)-dione]
137 nM | 3.8 nM | 9.9 nM | O=C(c1ccc(F)c(Cn2c(=O)[nH]c(=O)c3cc(Cl)ccc32)c1)N1CCN(C(=O)C2CCCC2)CC1 [Example 124, 6-Chloro-1-(3-(4-(cyclopentylcarbonyl)piperazine-1-carbonyl)-6-fluorobenzyl)quinazoline-2,4(1H,3H)-dione]
402 nM | 20 nM | 33 nM | O=C(c1ccc(F)c(Cn2c(=O)[nH]c(=O)c3ccccc32)c1)N1CCN(c2ccccn2)CC1 [Example 51, 1-(6-Fluoro-3-(4-(pyridin-2-yl)piperazine-1-carbonyl)benzyl)quinazoline-2,4(1H,3H)-dione]
746 nM | 21 nM | 72 nM | Cc1ccc2c(c1)c(=O)[nH]c(=O)n2Cc1ccc(F)c(C(=O)N2CCN(c3ncccn3)CC2)c1 [Example 83, 1-(4-Fluoro-3-(4-(pyrimidin-2-yl)piperazine-1-carbonyl)benzyl)-6-methylquinazoline-2,4(1H,3H)-dione]
421 nM | 10 nM | 32 nM | O=C(c1ccc(F)c(Cn2c(=O)[nH]c(=O)c3ccccc32)c1)N1CCN(C(=O)C2CCCCC2)CC1 [Example 49, 1-(3-(4-(Cyclohexylcarbonyl)piperazine-1-carbonyl)-6-fluorobenzyl)quinazoline-2,4(1H,3H)-dione]
1780 nM | 39 nM | 119 nM | O=C(c1cccc(Cn2c(=O)[nH]c(=O)c3ccccc32)c1)N1CCN(C(=O)C2CCC2)CC1 [Example 30, 1-(3-(4-(Cyclobutylcarbonyl)piperazine-1-carbonyl)benzyl)quinazoline-2,4(1H,3H)-dione]
170 nM | 17 nM | 9.6 nM | O=C(c1cccc(Cn2c(=O)[nH]c(=O)c3cc(Cl)ccc32)c1)N1CCN(C(=O)C2CCCCC2)CC1 [Example 113, 6-Chloro-1-(3-(4-(cyclohexylcarbonyl)piperazine-1-carbonyl)benzyl)quinazoline-2,4(1H,3H)-dione]
97 nM | 14 nM | 7.9 nM | O=C(c1cc(Cn2c(=O)[nH]c(=O)c3c(Cl)cccc32)ccc1F)N1CCN(C(=O)C2CCCCC2)CC1 [Example 105, 5-Chloro-1-(3-(4-(cyclohexylcarbonyl)piperazine-1-carbonyl)-4-fluorobenzyl)quinazoline-2,4(1H,3H)-dione]
767 nM | 2.9 nM | 14 nM | O=C(c1cccc(Cn2c(=O)[nH]c(=O)c3cc(Cl)ccc32)c1)N1CCN(C(=O)C2CCCC2)CC1 [Example 112, 6-Chloro-1-(3-(4-(cyclopentylcarbonyl)piperazine-1-carbonyl)benzyl)quinazoline-2,4(1H,3H)-dione]
974 nM | 18 nM | 51 nM | O=C(c1cc(Cn2c(=O)[nH]c(=O)c3ccccc32)ccc1F)N1CCN(c2nsc3ccccc23)CC1 [Example 43, 1-(3-(4-(Benzo[d]isothiazol-3-yl)piperazine-1-carbonyl)-4-fluorobenzyl)quinazoline-2,4(1H,3H)-dione]
